# According to patent US20130184222A1, “[…] ACTIVE COMPOSITIONS AND THEIR METHODS OF USE” (AGIOS PHARMACEUTICALS, INC, priority 2010, published 2013):
# pIC50: −log10 of the molar value.
# How the values were obtained:
# HT1080 cells = experiment: Cellular assay: inhibition of 2-HG production in HT1080 cells (LC-MS, 48 hours); format: cell-based; details: Homo sapiens, HT-1080, 2-HG in media by LC-MS
# Description: (§1) Cells (HT1080 or U87MG) were grown in T125 flasks in DMEM containing 10% FBS, 1× penicillin/streptomycin and 500 ug/mL G418 (present in U87MG cells only). They were harvested by trypsin and seeded into 96 well white bottom plates at a density of 5000 cell/well in 100 ul/well in DMEM with 10% FBS. No cells were placed in columns 1 and 12. Cells were incubated overnight at 37° C. in 5% CO2. The next day test compounds were made up at 2× the final concentration and 100 ul were added to each cell well. The final concentration of DMSO was 0.2% and the DMSO control wells were plated in row G. The plates were then placed in the incubator for 48 hours. At 48 hours, 100 ul of media was removed from each well and analyzed by LC-MS for 2-HG concentrations. The cell plate was placed back in the incubator for another 24 hours. At 72 hours post compound addition, 10 mL/plate of Promega Cell Titer Glo reagent was thawed and mixed. The cell plate was removed from the incubator and allowed to equilibrate to room temperature. Then 100 ul of Promega Cell Titer Glo reagent was added to each well of media. The cell plate was then placed on an orbital shaker for 10 minutes and then allowed to sit at room temperature for 20 minutes. The plate was then read for luminescence with an integration time of 500 ms.
# U87MG cells = experiment: Cellular assay: inhibition of 2-HG production in U87MG cells (LC-MS, 48 hours); format: cell-based; details: Homo sapiens, U-87 MG, 2-HG in media by LC-MS
# Description: as §1
# IDH1 R132H = IDH1 R132H (Homo sapiens, UniProt O75874, R132H); experiment: In vitro assay for IDH1 R132H inhibitors (NADPH/aKG, resazurin detection); format: biochemical; details: Table 4B; 0.2 μg/ml IDH1 R132H, 50 minutes at room temperature; read-out: IC50, IDH1 R132H Inhibition
# Chain of IDH1 R132H (O75874 whole entry R132H): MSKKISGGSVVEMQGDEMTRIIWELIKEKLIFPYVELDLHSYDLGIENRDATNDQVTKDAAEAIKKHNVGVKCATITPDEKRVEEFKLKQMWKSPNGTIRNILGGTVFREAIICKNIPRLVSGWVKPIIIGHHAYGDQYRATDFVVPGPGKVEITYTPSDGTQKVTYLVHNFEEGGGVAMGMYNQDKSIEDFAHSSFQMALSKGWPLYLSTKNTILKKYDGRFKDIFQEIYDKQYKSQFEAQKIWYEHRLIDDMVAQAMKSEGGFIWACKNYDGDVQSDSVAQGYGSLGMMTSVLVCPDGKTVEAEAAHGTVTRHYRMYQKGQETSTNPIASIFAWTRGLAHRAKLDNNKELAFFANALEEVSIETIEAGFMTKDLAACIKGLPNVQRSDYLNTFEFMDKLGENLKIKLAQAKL
# Method in brief: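 Buffer: 150 mM NaCl, 10 mM MgCl2, 20 mM Tris pH 7.5, 0.03% BSA. Compound was added to substrate mix (8 uM NADPH, 2 mM aKG), then enzyme mix (0.2 μg/ml IDH1 R132H), and incubated 50 min at room temperature. Remaining NADPH was read by resazurin (30 μM in detection mix) to resorufin fluorescence after 5 min, Ex544/Em590.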
SMILES,pIC50 (HT1080 cells),pIC50 (U87MG cells),pIC50 (IDH1 R132H)
Cc1ccccc1C(C(=O)NC1CCCCC1)N(C(=O)CNCCc1ccncc1)c1cccc(F)c1 (stereo not shown) [Compound 184],6.00 to 6.60,6.00 to 6.60,6.00 to 7.00
Cc1ccccc1C(C(=O)NC1CCCCC1)N(C(=O)Cn1ccc2ccccc21)c1cccc(F)c1 (stereo not shown) [Compound 271],≥ 6.60,6.00 to 6.60,≥ 7.00
COc1cccc(NCC(=O)N(c2cccc(F)c2)C(C(=O)NC2CCCCC2)c2ccccc2C)c1 (stereo not shown) [Compound 247],≥ 6.60,6.00 to 6.60,≥ 7.00
Cc1ccccc1C(C(=O)NC1CCCCC1)N(C(=O)Cn1ccnc1N)c1cccc(F)c1 (stereo not shown) [Compound 326],6.00 to 6.60,≥ 6.60,6.00 to 7.00
Cc1ccccc1C(C(=O)NC1CCCCC1)N(C(=O)Cn1cncn1)c1cccc(F)c1 (stereo not shown) [Compound 294],5.30 to 6.00,6.00 to 6.60,6.00 to 7.00
Cc1ccccc1C(C(=O)NC1CCCCC1)N(C(=O)C(=O)c1c[nH]c2ccccc12)c1cccc(F)c1 (stereo not shown) [Compound 262],5.30 to 6.00,5.30 to 6.00,6.00 to 7.00
Cc1ccccc1C(C(=O)NC1CCCCC1)N(C(=O)CN1CCOc2ccccc21)c1cccc(F)c1 (stereo not shown) [Compound 202],≥ 6.60,6.00 to 6.60,≥ 7.00
COC(=O)N1CCCCC1C(=O)N(c1cccc(F)c1)C(C(=O)NC1CCCCC1)c1ccccc1C (stereo not shown) [Compound 293],6.00 to 6.60,≥ 6.60,≥ 7.00
Cc1ccccc1C(C(=O)NC1CCCCC1)N(C(=O)CNc1ccc(-c2ncon2)cc1)c1cccc(F)c1 (stereo not shown) [Compound 291],≥ 6.60,6.00 to 6.60,≥ 7.00
Cc1ccccc1C(C(=O)NC1CCCCC1)N(Cc1cccs1)C(=O)CN1Cc2cccnc2C1 (stereo not shown) [Compound 206],5.30 to 6.00,5.30 to 6.00,6.00 to 7.00
Cc1ccccc1C(C(=O)NC1CC2CC2C1)N(C(=O)CNc1cccnc1F)c1cccc(F)c1 (stereo not shown) [Compound 377],< 5.30,,6.00 to 7.00
Cc1ccccc1C(C(=O)NC1CCCCC1)N(C(=O)CNc1ccccc1F)c1cccc(F)c1 (stereo not shown) [Compound 242],5.30 to 6.00,,6.00 to 7.00
Cc1ccccc1C(C(=O)NC1CCCCC1)N(c1cccc(F)c1)S(=O)(=O)Cc1ccccc1 (stereo not shown) [Compound 393],< 5.30,,6.00 to 7.00
COC(=O)N(C)[C@@H](C)C(=O)N(c1cccc(F)c1)[C@H](C(=O)NC1CCCCC1)c1ccccc1C [Compound 366],6.00 to 6.60,6.00 to 6.60,
Cc1ccccc1C(C(=O)NC1CCCCC1)N(C(=O)COc1ccc(F)cc1)c1cccc(F)c1 (stereo not shown) [Compound 194],6.00 to 6.60,,6.00 to 7.00
CCS(=O)(=O)NCC(=O)N(c1cccc(F)c1)C(C(=O)NC1CCCCC1)c1ccccc1C (stereo not shown) [Compound 367],< 5.30,,6.00 to 7.00
Cc1ccccc1C(C(=O)NC1CCCCC1)N(C(=O)COCc1ccc(F)cc1)c1cccc(F)c1 (stereo not shown) [Compound 214],< 5.30,,6.00 to 7.00
Cc1ccccc1C(C(=O)NC1CCCCC1)N(C(=O)COC1CCCCC1F)c1cccc(F)c1 (stereo not shown) [Compound 235],5.30 to 6.00,,6.00 to 7.00
Cc1ccccc1C(C(=O)NC1CCCCC1)N(C(=O)COc1ccccc1F)c1cccc(F)c1 (stereo not shown) [Compound 196],6.00 to 6.60,,6.00 to 7.00
Cc1ccccc1C(C(=O)NC1CCCCC1)N(C(=O)COCc1cccc(F)c1)c1cccc(F)c1 (stereo not shown) [Compound 234],5.30 to 6.00,,6.00 to 7.00
Cc1ccccc1C(C(=O)NC1CCCCC1)N(C(=O)CNc1ccc(-c2nnn[nH]2)cc1)c1cccc(F)c1 (stereo not shown) [Compound 285],< 5.30,,6.00 to 7.00
Cc1ccccc1C(C(=O)NC1CCCCC1)N(C(=O)CNCCc1ccccc1)c1cccc(F)c1 (stereo not shown) [Compound 154],,5.30 to 6.00,6.00 to 7.00
O=C(NC1CCCCC1)[C@@H](c1ccccc1)N(C(=O)Cc1cccs1)c1cccc(F)c1 [Compound 386],,≥ 6.60,≥ 7.00
Cc1ccccc1C(C(=O)NC1CCCCC1)N(Cc1cccs1)C(=O)CNc1ccc(F)cc1 (stereo not shown) [Compound 207],5.30 to 6.00,,6.00 to 7.00
